{"source": "patent US7205433B2", "about": "“Crystal of amino acid ester salt and process for producing the same” (Ajinomoto Co., Inc., priority 2002, dated 2007)", "format_in_all_cases": "physicochemical", "key": {"[1]": {"assay": "Experimental Example 7: evaluation of hygroscopicity by weight gain over time (60 to 66% RH)", "conditions": "24 EC", "method": "The L-Ala-OMe HCl salt, L-Ala-OMe 4-EBS salt, L-Ala-OMe 2,4-DMBS salt, and L-Ala-OMe 2,5-DMBS salt were measured in an amount of about 0.3 g each, left standing in a thermostatic chamber at temperature of 24 EC and a humidity of 60 to 66% RH, and the hygroscopicity was compared based on the weight gain with the lapse of time. A part of the crystal of the L-Ala-OMe HCl salt was liquefied in 10 minutes, and the entirety became a sherbet in 20 minute. The liquefied portion increased thereafter with the lapse of time. After 80 minutes, the whole was liquefied."}, "[2]": {"assay": "Experimental Example 1: comparison of hygroscopicity by weight gain over time (44 to 45% RH)", "conditions": "22 to 24° C.", "method": "L-Ala-OEt HCl salt and L-Ala-OEt MsOH salt were measured into in a glass container in an amount of 1.6 g each, dried in vacuo at 30° C. for 5 hours, left under conditions of temperature: 22 to 24° C., humidity: 44 to 45% RH, and then the hygroscopicity was compared based on the weight gain over the lapse of time. […] The liquefied portion increased with the lapse of time, and the entire salt became liquid 750 minutes later with no observable crystal."}, "[3]": {"assay": "Experimental Example 4: comparison of hygroscopicity by weight gain over time (40 to 46% RH)", "conditions": "24° C.", "method": "The L-Ala-OEt HCl salt, L-Ala-OEt MsOH salt, L-Ala-OEt BsOH salt, L-Ala-OEt 4-CBS salt, L-Ala-OEt 4-EBS salt, L-Ala-OEt 2,4-DMBS salt, and L-Ala-OEt 2,5-DMBS salt were measured in an amount of about 0.3 g each, left standing in a thermostatic chamber at a temperature of 24° C. and a humidity of 40 to 46% RH, and the hygroscopicity was compared based on the weight gain with the lapse of time. A part of the crystal of the L-Ala-OEt HCl salt was liquefied in 30 minutes, and the liquefied portion increased thereafter with the lapse of time. After 100 minutes, the whole mass became like a sherbet."}}}
{"compound": "L-alanine methyl ester 2,5-dimethylbenzenesulfonate [L-Ala-OMe 2,5-DMBS salt]", "values": [{"measurement": "weight increase rate (%)", "setting": "[1]; 0 min", "value": 0.00, "unit": "%"}, {"measurement": "weight increase rate (%)", "setting": "[1]; 10 min", "value": 0.06, "unit": "%"}, {"measurement": "weight increase rate (%)", "setting": "[1]; 20 min", "value": 0.06, "unit": "%"}, {"measurement": "weight increase rate (%)", "setting": "[1]; 35 min", "value": 0.06, "unit": "%"}, {"measurement": "weight increase rate (%)", "setting": "[1]; 50 min", "value": 0.03, "unit": "%"}, {"measurement": "weight increase rate (%)", "setting": "[1]; 65 min", "value": 0.03, "unit": "%"}, {"measurement": "weight increase rate (%)", "setting": "[1]; 80 min", "value": 0.03, "unit": "%"}, {"measurement": "weight increase rate (%)", "setting": "[1]; 95 min", "value": 0.00, "unit": "%"}, {"measurement": "weight increase rate (%)", "setting": "[1]; 110 min", "value": 0.03, "unit": "%"}, {"measurement": "weight increase rate (%)", "setting": "[1]; 125 min", "value": 0.06, "unit": "%"}, {"measurement": "weight increase rate (%)", "setting": "[1]; 140 min", "value": 0.00, "unit": "%"}, {"measurement": "weight increase rate (%)", "setting": "[1]; 155 min", "value": 0.00, "unit": "%"}, {"measurement": "weight increase rate (%)", "setting": "[1]; 170 min", "value": 0.03, "unit": "%"}, {"measurement": "weight increase rate (%)", "setting": "[1]; 185 min", "value": 0.03, "unit": "%"}, {"measurement": "weight increase rate (%)", "setting": "[1]; 200 min", "value": 0.06, "unit": "%"}]}
{"compound": "L-alanine methyl ester 2,4-dimethylbenzenesulfonate [L-Ala-OMe 2,4-DMBS salt]", "values": [{"measurement": "weight increase rate (%)", "setting": "[1]; 0 min", "value": 0.00, "unit": "%"}, {"measurement": "weight increase rate (%)", "setting": "[1]; 10 min", "value": 0.33, "unit": "%"}, {"measurement": "weight increase rate (%)", "setting": "[1]; 20 min", "value": 0.37, "unit": "%"}, {"measurement": "weight increase rate (%)", "setting": "[1]; 35 min", "value": 0.37, "unit": "%"}, {"measurement": "weight increase rate (%)", "setting": "[1]; 50 min", "value": 0.37, "unit": "%"}, {"measurement": "weight increase rate (%)", "setting": "[1]; 65 min", "value": 0.37, "unit": "%"}, {"measurement": "weight increase rate (%)", "setting": "[1]; 80 min", "value": 0.37, "unit": "%"}, {"measurement": "weight increase rate (%)", "setting": "[1]; 95 min", "value": 0.37, "unit": "%"}, {"measurement": "weight increase rate (%)", "setting": "[1]; 110 min", "value": 0.40, "unit": "%"}, {"measurement": "weight increase rate (%)", "setting": "[1]; 125 min", "value": 0.43, "unit": "%"}, {"measurement": "weight increase rate (%)", "setting": "[1]; 140 min", "value": 0.40, "unit": "%"}, {"measurement": "weight increase rate (%)", "setting": "[1]; 155 min", "value": 0.43, "unit": "%"}, {"measurement": "weight increase rate (%)", "setting": "[1]; 170 min", "value": 0.47, "unit": "%"}, {"measurement": "weight increase rate (%)", "setting": "[1]; 185 min", "value": 0.50, "unit": "%"}, {"measurement": "weight increase rate (%)", "setting": "[1]; 200 min", "value": 0.50, "unit": "%"}]}
{"compound": "CCOC(=O)[C@H](C)N.Cl", "note": "[L-Ala-OEt HCl salt, alanine ethyl ester hydrochloride]", "values": [{"measurement": "time to liquefaction of a part of the crystals", "setting": "[2]", "value": 60, "unit": "min"}, {"measurement": "time until the entire salt became liquid", "setting": "[2]", "value": 750, "unit": "min"}, {"measurement": "weight increase rate (% relative to initial weight)", "setting": "[2]; 0 minutes", "value": 0.00, "unit": "%"}, {"measurement": "weight increase rate (% relative to initial weight)", "setting": "[2]; 1 minutes", "value": 1.63, "unit": "%"}, {"measurement": "weight increase rate (% relative to initial weight)", "setting": "[2]; 2 minutes", "value": 1.67, "unit": "%"}, {"measurement": "weight increase rate (% relative to initial weight)", "setting": "[2]; 3 minutes", "value": 1.72, "unit": "%"}, {"measurement": "weight increase rate (% relative to initial weight)", "setting": "[2]; 4 minutes", "value": 1.73, "unit": "%"}, {"measurement": "weight increase rate (% relative to initial weight)", "setting": "[2]; 6 minutes", "value": 1.80, "unit": "%"}, {"measurement": "weight increase rate (% relative to initial weight)", "setting": "[2]; 10 minutes", "value": 1.95, "unit": "%"}, {"measurement": "weight increase rate (% relative to initial weight)", "setting": "[2]; 15 minutes", "value": 2.07, "unit": "%"}, {"measurement": "weight increase rate (% relative to initial weight)", "setting": "[2]; 25 minutes", "value": 2.29, "unit": "%"}, {"measurement": "weight increase rate (% relative to initial weight)", "setting": "[2]; 35 minutes", "value": 2.55, "unit": "%"}, {"measurement": "weight increase rate (% relative to initial weight)", "setting": "[2]; 50 minutes", "value": 2.88, "unit": "%"}, {"measurement": "state of the crystals", "setting": "[2]; 60 minutes", "value": "(partly liquefied)"}, {"measurement": "weight increase rate (% relative to initial weight)", "setting": "[2]; 60 minutes", "value": 3.09, "unit": "%"}, {"measurement": "weight increase rate (% relative to initial weight)", "setting": "[2]; 75 minutes", "value": 3.38, "unit": "%"}, {"measurement": "weight increase rate (% relative to initial weight)", "setting": "[2]; 90 minutes", "value": 3.63, "unit": "%"}, {"measurement": "weight increase rate (% relative to initial weight)", "setting": "[2]; 120 minutes", "value": 4.10, "unit": "%"}, {"measurement": "weight increase rate (% relative to initial weight)", "setting": "[2]; 150 minutes", "value": 4.41, "unit": "%"}, {"measurement": "weight increase rate (% relative to initial weight)", "setting": "[2]; 180 minutes", "value": 4.89, "unit": "%"}, {"measurement": "state of the crystals", "setting": "[2]; 750 minutes", "value": "(whole liquid)"}, {"measurement": "weight increase rate (% relative to initial weight)", "setting": "[2]; 750 minutes", "value": 14.37, "unit": "%"}, {"measurement": "time until a part of the crystal was liquefied", "setting": "[3]", "value": 30, "unit": "min"}, {"measurement": "time until the whole mass became like a sherbet", "setting": "[3]", "value": 100, "unit": "min"}, {"measurement": "weight increase rate (%)", "setting": "[3]; 0 minutes", "value": 0.00, "unit": "%"}, {"measurement": "weight increase rate (%)", "setting": "[3]; 15 minutes", "value": 2.63, "unit": "%"}, {"measurement": "weight increase rate (%)", "setting": "[3]; 30 minutes", "value": 4.56, "unit": "%"}, {"measurement": "weight increase rate (%)", "setting": "[3]; 45 minutes", "value": 6.42, "unit": "%"}, {"measurement": "weight increase rate (%)", "setting": "[3]; 60 minutes", "value": 7.76, "unit": "%"}, {"measurement": "weight increase rate (%)", "setting": "[3]; 75 minutes", "value": 8.82, "unit": "%"}, {"measurement": "weight increase rate (%)", "setting": "[3]; 90 minutes", "value": 9.53, "unit": "%"}, {"measurement": "weight increase rate (%)", "setting": "[3]; 120 minutes", "value": 9.89, "unit": "%"}, {"measurement": "weight increase rate (%)", "setting": "[3]; 150 minutes", "value": 10.39, "unit": "%"}, {"measurement": "weight increase rate (%)", "setting": "[3]; 180 minutes", "value": 10.69, "unit": "%"}]}
{"compound": "L-alanine methyl ester 4-ethylbenzenesulfonate [L-Ala-OMe 4-EBS salt]", "values": [{"measurement": "weight increase rate (%)", "setting": "[1]; 0 min", "value": 0.00, "unit": "%"}, {"measurement": "weight increase rate (%)", "setting": "[1]; 10 min", "value": 0.06, "unit": "%"}, {"measurement": "weight increase rate (%)", "setting": "[1]; 20 min", "value": 0.06, "unit": "%"}, {"measurement": "weight increase rate (%)", "setting": "[1]; 35 min", "value": 0.06, "unit": "%"}, {"measurement": "weight increase rate (%)", "setting": "[1]; 50 min", "value": 0.06, "unit": "%"}, {"measurement": "weight increase rate (%)", "setting": "[1]; 65 min", "value": 0.03, "unit": "%"}, {"measurement": "weight increase rate (%)", "setting": "[1]; 80 min", "value": 0.06, "unit": "%"}, {"measurement": "weight increase rate (%)", "setting": "[1]; 95 min", "value": 0.06, "unit": "%"}, {"measurement": "weight increase rate (%)", "setting": "[1]; 110 min", "value": 0.03, "unit": "%"}, {"measurement": "weight increase rate (%)", "setting": "[1]; 125 min", "value": 0.06, "unit": "%"}, {"measurement": "weight increase rate (%)", "setting": "[1]; 140 min", "value": 0.06, "unit": "%"}, {"measurement": "weight increase rate (%)", "setting": "[1]; 155 min", "value": 0.06, "unit": "%"}, {"measurement": "weight increase rate (%)", "setting": "[1]; 170 min", "value": 0.06, "unit": "%"}, {"measurement": "weight increase rate (%)", "setting": "[1]; 185 min", "value": 0.06, "unit": "%"}, {"measurement": "weight increase rate (%)", "setting": "[1]; 200 min", "value": 0.06, "unit": "%"}]}
